IC50 data for 25 compounds are collected here from patent publication US8461160B2, “Dihydropyrimidinones” (Hoffmann-La Roche, Inc., priority 2009, dated 2013).

Each structure is given as a SMILES string. pIC50: −log10 of the molar value.

For the experiment, the target named is T1, BACE2 (Homo sapiens, UniProt Q9Y5Z0).
T1 construct: BACE2 enzyme ectodomain (derived from plasmid “pET17b-T7-hu proBACE2”) was prepared as described in Ostermann et al; T7 tag (N); made in house
T1 sequence (Q9Y5Z0 21-473 limits assumed): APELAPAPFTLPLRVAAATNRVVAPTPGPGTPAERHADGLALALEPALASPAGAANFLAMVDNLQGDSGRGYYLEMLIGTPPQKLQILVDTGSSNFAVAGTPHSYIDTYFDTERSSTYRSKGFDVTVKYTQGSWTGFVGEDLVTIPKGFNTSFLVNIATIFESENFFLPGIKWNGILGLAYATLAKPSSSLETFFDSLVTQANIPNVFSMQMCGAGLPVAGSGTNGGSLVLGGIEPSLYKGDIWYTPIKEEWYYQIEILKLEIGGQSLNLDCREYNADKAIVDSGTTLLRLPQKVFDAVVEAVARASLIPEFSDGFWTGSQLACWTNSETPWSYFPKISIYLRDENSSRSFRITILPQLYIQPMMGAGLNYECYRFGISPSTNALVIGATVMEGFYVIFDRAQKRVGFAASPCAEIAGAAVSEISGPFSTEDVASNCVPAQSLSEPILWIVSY
In words: Fluorescent-peptide cleavage assay for BACE2 inhibition. The conditions noted are these: BACE2 enzyme ectodomain, fluorescent peptide WS EVNLD AEFRC-MR121, assay buffer pH 4.5, room temperature. It counts as biochemical. How it is done: Fluorescent-Peptide Cleavage Assay for BACE2 Inhibition
The pro-enzyme was stored at 4° C. at a concentration of 70 μg/ml.
A fluorescent peptide with the amino acid sequence WS EVNLD AEFRC-MR121 was synthesised and a stock solution of 1.5 mM in DMSO prepared and stored at −20° C. MR121 is a fluorophore with an excitation wavelength of 630 nm and emission wavelength of 695 nm. The MR121 fluorescence is quenched by the N-terminal tryptophan until the peptide is cleaved by BACE2.
Assays were all made in a Corning 384-well black polystyrene non-binding surface microtitre plate with clear flat bottom and using a Plate:Vision (Perkin Elmer) fluorescence reader. To perform the assay an 80 nM solution of BACE2 was prepared in assay buffer (assay buffer is 100 mM Na-acetate; 20 mM EDTA; 0.05% BSA; pH 4.5) and incubated at room temperature for 1 hour to activate the enzyme. 39 μl of the activated BACE2 was placed in each assay well, followed by 1 μl compound to be tested at an appropriate concentration in 100% DMSO. The plate was then mixed and incubated for 10 minutes at room temperature.
The assay readout is the rate of change of fluorescence intensity giving a relative measure of BACE2 activity. Small values correspond to high inhibition and larger values to low inhibition. […] IC50 values were determined using these assay values generated for a range of inhibitor concentrations and the curve fitting software XLfit (IDBS) using the Sigmoidal Dose-Response Model.

For the compound `CC[C@H]1C(=O)N(C)C(N)=N[C@]1(C)c1cccc(NC(=O)c2ccc(Cl)cn2)c1` [Example 92, 5-Chloro-pyridine-2-carboxylic acid [3-((4S,5R)-2-amino-5-ethyl-1,4-dimethyl-6-oxo-1,4,5,6-tetrahydro-pyrimidin-4-yl)-phenyl]-amide], the pIC50 was 7.62.

As for `CC[C@@]1(c2cccc(NC(=O)c3ccc(C(F)(F)F)cn3)c2)CC(=O)N(C)C(N)=N1` [Example 86, 5-Trifluoromethyl-pyridine-2-carboxylic acid [3-((S)-2-amino-4-ethyl-1-methyl-6-oxo-1,4,5,6-tetrahydro-pyrimidin-4-yl)-phenyl]amide], the pIC50 is 6.60.

Consider `CN1C(=O)C[C@@](C)(c2cncc(NC(=O)c3ccc(Cl)cn3)c2)N=C1N` [Example 52, 5-Chloro-pyridine-2-carboxylic acid [5-((S)-2-amino-1,4-dimethyl-6-oxo-1,4,5,6-tetrahydro-pyrimidin-4-yl)-pyridin-3-yl]-amide], for which the pIC50 was 7.96.

Consider `CN1C(=O)C[C@@](C)(c2cccc(NC(=O)c3ccccc3-c3ncc[nH]3)c2)N=C1N` [Example 80, N-[3-((S)-2-Amino-1,4-dimethyl-6-oxo-1,4,5,6-tetrahydro-pyrimidin-4-yl)-phenyl]-2-(1H-imidazol-2-yl)-benzamide], for which the pIC50 was 5.68. This pIC50 lies 2.28 log units lower than the previous one.

Regarding `CN1C(=O)C(C)(C)[C@@](C)(c2cc(NC(=O)c3ccn(C(F)F)n3)ccc2F)N=C1N` [Example 121, 1-Difluoromethyl-1H-pyrazole-3-carboxylic acid [3-((S)-2-amino-1,4,5,5-tetramethyl-6-oxo-1,4,5,6-tetrahydro-pyrimidin-4-yl)-4-fluoro-phenyl]amide], the pIC50 is 7.77. Compared with the last compound, the pIC50 is 2.09 log units higher.

As for `CN1C(=O)C[C@@](C)(c2cccc(NC(=O)c3ccc(-n4ccc(C(F)(F)F)n4)cn3)c2)N=C1N` [Example 76, 5-(3-Trifluoromethyl-pyrazol-1-yl)-pyridine-2-carboxylic acid [3-((S)-2-amino-1,4-dimethyl-6-oxo-1,4,5,6-tetrahydro-pyrimidin-4-yl)-phenyl]-amide], the pIC50 is 6.52.

Consider `CN1C(=O)C[C@@](C)(c2cccc(NC(=O)c3ncccc3Sc3ccccc3)c2)N=C1N` [Example 61, 3-Phenylsulfanyl-pyridine-2-carboxylic acid [3-((S)-2-amino-1,4-dimethyl-6-oxo-1,4,5,6-tetrahydro-pyrimidin-4-yl)-phenyl]-amide], for which the pIC50 was 6.62. The pIC50 values of the last two compounds are within 0.2 log units of each other.

The compound `CN1C(=O)C[C@@](C)(c2cccc(NC(=O)c3ccc(F)cn3)c2)N=C1N` [Example 27, 5-Fluoro-pyridine-2-carboxylic acid [3-((S)-2-amino-1,4-dimethyl-6-oxo-1,4,5,6-tetrahydro-pyrimidin-4-yl)-phenyl]amide] showed a pIC50 of 7.74. This pIC50 is 1.12 log units higher than that of the compound before.

`CN1C(=O)C(C)(C)[C@@](C)(c2cc(NC(=O)c3cn(C)cn3)ccc2F)N=C1N` [Example 112, 1-Methyl-1H-imidazole-4-carboxylic acid [3-((S)-2-amino-1,4,5,5-tetramethyl-6-oxo-1,4,5,6-tetrahydro-pyrimidin-4-yl)-4-fluoro-phenyl]amide] gave a pIC50 of 5.90.

Compound `CN1C(=O)C[C@@](C)(c2cccc(NC(=O)c3cccnc3)c2)N=C1N` [Example 33, N-[3-((S)-2-Amino-1,4-dimethyl-6-oxo-1,4,5,6-tetrahydro-pyrimidin-4-yl)-phenyl]-nicotinamide] showed a negative logarithm of the IC50 (pIC50) of 5.96.

`Cc1cc(C(=O)Nc2ccc(F)c([C@@]3(C)N=C(N)N(C)C(=O)C3(C)C)c2)no1` [Example 116, 5-Methyl-isoxazole-3-carboxylic acid [3-((S)-2-amino-1,4,5,5-tetramethyl-6-oxo-1,4,5,6-tetrahydro-pyrimidin-4-yl)-4-fluoro-phenyl]amide] showed a pIC50 of 6.08.

Compound `CN1C(=O)C[C@@](C)(c2cccc(NC(=O)c3ccc(=O)[nH]n3)c2)N=C1N` [Example 23, 6-Oxo-1,6-dihydro-pyridazine-3-carboxylic acid [3-((S)-2-amino-1,4-dimethyl-6-oxo-1,4,5,6-tetrahydro-pyrimidin-4-yl)-phenyl]amide] had a pIC50 of 7.24.

Compound `CC[C@@]1(c2cccc(NC(=O)c3cccc(Cl)n3)c2)CC(=O)N(C)C(N)=N1` [Example 42, 6-Chloro-pyridine-2-carboxylic acid [3-((S)-2-amino-4-ethyl-1-methyl-6-oxo-1,4,5,6-tetrahydro-pyrimidin-4-yl)-phenyl]-amide] had a pIC50 of 6.90.

The compound `CN1C(=O)C(C)(C)[C@@](C)(c2cc(NC(=O)c3ccn(C)n3)ccc2F)N=C1N` [Example 98, 1-Methyl-1H-pyrazole-3-carboxylic acid [3-((S)-2-amino-1,4,5,5-tetramethyl-6-oxo-1,4,5,6-tetrahydro-pyrimidin-4-yl)-4-fluoro-phenyl]amide] had a pIC50 of 7.46. This pIC50 is 0.56 log units higher than that of the compound before.

On to `CN1C(=O)C[C@@](C)(c2cccc(NC(=O)c3ccc(Cl)cn3)c2)N=C1N` [Example 10, 5-Chloro-pyridine-2-carboxylic acid [3-((S)-2-amino-1,4-dimethyl-6-oxo-1,4,5,6-tetrahydro-pyrimidin-4-yl)-phenyl]amide], for which the pIC50 is 8.15.

In turn, `CN1C(=O)C[C@@](C)(c2cccc(NC(=O)c3cn4ccccc4n3)c2)N=C1N` [Example 9, Imidazo[1,2-a]pyridine-2-carboxylic acid [3-((S)-2-amino-1,4-dimethyl-6-oxo-1,4,5,6-tetrahydro-pyrimidin-4-yl)-phenyl]amide] showed a pIC50 of 6.96.

As for `CN1C(=O)C[C@@](C)(c2cc(NC(=O)c3ncc(Cl)cn3)ccc2F)N=C1N` [Example 46, 5-Chloro-pyrimidine-2-carboxylic acid [3-((S)-2-amino-1,4-dimethyl-6-oxo-1,4,5,6-tetrahydro-pyrimidin-4-yl)-4-fluoro-phenyl]amide], the pIC50 is 7.85.

The compound `CN1C(=O)C[C@@](C)(c2cccc(NC(=O)c3ncccc3C(F)(F)F)c2)N=C1N` [Example 62, 3-Trifluoromethyl-pyridine-2-carboxylic acid [3-((S)-2-amino-1,4-dimethyl-6-oxo-1,4,5,6-tetrahydro-pyrimidin-4-yl)-phenyl]-amide] gave a pIC50 of 6.82.

Regarding `CN1C(=O)C(C)(C)[C@@](C)(c2cc(NC(=O)c3cn4cc(Cl)ccc4n3)ccc2F)N=C1N` [Example 120, 6-Chloro-imidazo[1,2-a]pyridine-2-carboxylic acid [3-((S)-2-amino-1,4,5,5-tetramethyl-6-oxo-1,4,5,6-tetrahydro-pyrimidin-4-yl)-4-fluoro-phenyl]amide], the pIC50 was 7.37.

Regarding `CN1C(=O)C[C@@](C)(c2cccc(NC(=O)c3csc(C(F)(F)F)n3)c2)N=C1N` [Example 66, 2-Trifluoromethyl-thiazole-4-carboxylic acid [3-((S)-2-amino-1,4-dimethyl-6-oxo-1,4,5,6-tetrahydro-pyrimidin-4-yl)-phenyl]-amide], the pIC50 was 5.81.

In the case of `CN1C(=O)C[C@@](C)(c2cccc(NC(=O)c3ccncc3)c2)N=C1N` [Example 26, N-[3-((S)-2-Amino-1,4-dimethyl-6-oxo-1,4,5,6-tetrahydro-pyrimidin-4-yl)-phenyl]-isonicotinamide], the pIC50 was 6.02. This pIC50 is 0.21 log units higher than that of the compound before.

In turn, `Cc1ccc(C(=O)Nc2cccc([C@]3(C)CC(=O)N(C)C(N)=N3)c2)cc1` [Example 17, N-[3-((S)-2-Amino-1,4-dimethyl-6-oxo-1,4,5,6-tetrahydro-pyrimidin-4-yl)-phenyl]-4-methyl-benzamide] showed a pIC50 of 6.92.

As for `CN1C(=O)C[C@@](C)(c2cccc(NC(=O)c3ccc(Cl)nc3)c2)N=C1N` [Example 19, N-[3-((S)-2-Amino-1,4-dimethyl-6-oxo-1,4,5,6-tetrahydro-pyrimidin-4-yl)-phenyl]-6-chloro-nicotinamide], the pIC50 is 6.26. Against the preceding compound, the pIC50 is 0.66 log units lower.

In the case of `CN1C(=O)C[C@]2(CCc3ccc(NC(=O)c4ncccc4C(F)(F)F)cc32)N=C1N` [Example 130, N-[(1S)-2′-amino-1′-methyl-6′-oxo-2,3,5′,6′-tetrahydro-1′H-spiro[indene-1,4′-pyrimidin]-6-yl]-3-trifluoromethyl-pyridine-2-carboxamide], the negative logarithm of the IC50 (pIC50) is 5.87.

In the case of `CN1C(=O)C[C@@](C)(c2cccc(NC(=O)c3ccc4sccc4n3)c2)N=C1N` [Example 59, Thieno[3,2-b]pyridine-5-carboxylic acid [3-((S)-2-amino-1,4-dimethyl-6-oxo-1,4,5,6-tetrahydro-pyrimidin-4-yl)-phenyl]-amide], the pIC50 was 5.77.
